{"source": "patent US20240285808A1", "about": "“MOLECULAR PROBES FOR IN VIVO DETECTION OF ALDEHYDES” (The General Hospital Corporation, priority 2021, published 2024)", "key": {"liver of BDL rats": {"tested_on": "liver of BDL rats", "assay": "LA-ICP-MS gadolinium imaging of rat liver after Gd-9 MRI", "format": "in vivo", "details": "BDL rat liver harvested 30 min p.i.", "procedure": "LA-ICP-MS Gadolinium Imaging Analysis\nSample preparation. Harvested rat livers after MR imaging were immediately snapfrozen in OCT using liquid nitrogen, sectioned into 10-μm-thick slices, stored in −80° C. One slice was assessed by LA-ICP-MS directly. One adjacent slide was incubated with 0.1 mM Gd-9 at 37° C. for 2 h, followed with 0.2 mM NaBH3CN for 2 h and washed with PBS (3×10 min). Another adjacent slide was incubated with 0.1 mM Gd-9 and 10 mM hydrazine at 37° C. for 2 h, followed with 0.2 mM NaBH3CN for 2 hand washed with PBS (3×10 min). Similar procedures were carried out for human tissues. Slides were incubated with 0.1 mM Gd-9 at 37° C. for 2h, followed with 0.2 mM NaBH3CN for 2 h and washed with PBS (3×10 min).\nGadolinium mapping. Elemental images were collected from sections of liver tissue via laser ablation inductively coupled plasma mass spectrometry at the Biomedical National Elemental Imaging Resource (BNEIR). The instrumentation used was a New Wave Research 213 nm laser ablation system with a 10 cm^2 sample chamber, interfaced with an Agilent 7900 ICP-MS system. Samples were ablated in no-gas mode, with helium as a carrier gas at a flow rate of 600 L min^−1. […] Elemental imaging data was quantified using metal-doped gelatin standards prepared at BNEIR and National Institute of Standards and Technology (NIST) certified references material 1515 (apple leaves). […]"}, "liver of CDAHFD mice": {"tested_on": "liver of CDAHFD mice", "assay": "MR imaging of liver in non-alcoholic steatohepatitis (CDAHFD) model", "format": "in vivo, mouse", "details": "20 min post injection", "source_text": "Non-Alcoholic Steatohepatitis Liver Fibrosis Model:\nA total of 40 C57BL/6 mice were used and randomized to each study group. To induce NASH, 6-week old, male C57BL/6 mice (Charles River Labs, Wilmington, MA) were fed a choline deficient, high fat diet (CDAHFD) consisting of 60 kcal % fat and 0.1% methionine (A06071302; Research Diets, New Brunswick, NJ) by weight. No animals were excluded from the study.\nThree groups of mice were studied:\nGroup A, mice were fed CDAHFD for 2 (n=6), 6 (n=6), 10 (n=6) weeks and imaged with probe Gd-9.\nGroup B, mice were fed CDAHFD for 10 weeks followed by normal chow for 1 (n=6) or 4 weeks (n=6) and imaged with probe Gd-9.\nGroup C, mice were fed normal chow for 2, 6, 10, 11 or 14 weeks (n=10) and imaged with probe Gd-9.\nAnimals were anesthetized with isoflurane (1-2%) and placed in a specially designed cradle with body temperature maintained at 37° C. The inhaled isoflurane level was adjusted to maintain a respiration rate of 60±5 breaths per minute. The tail vein was cannulated for intravenous (i.v.) delivery of the contrast agent while the animal was positioned in the scanner. Imaging was performed at 4.7 T using a small bore animal scanner with a custom-built volume coil. Mice were imaged with a dose of 100 μmol/kg from 30 mM stock solution of Gd or Mn complex.\nFollowing the imaging session, animals were sacrificed (75 min p.i.) and liver tissue was subjected to histopathologic analysis.\nFor liver imaging analysis, a region of interest (ROI) was manually traced encompassing the liver parenchyma while avoiding major blood vessels. A second ROI was placed on the dorsal muscle visible in the same image slice to quantify the signal intensity in the muscle for comparison. Seven ROIs were placed in the field of view without any tissue (air) to measure the variation in background signal. More than 20 axial slices per mouse across the entire liver were analyzed in this fashion. […] Contrast to noise ratio (CNR) was calculated by measuring the difference in signal intensity (SI) between liver and muscle and normalizing to the standard deviation of the signal in the air, eq 21. ΔCNR was calculated by subtracting CNR measured prior to probe injection (CNRPre) from CNR measured after injection (CNRPost), eq 22.\nMice were fed with CDAHFD or standard chow for 2, 6, or 10 weeks; two additional groups of mice received CDAHFD for 10 weeks and then standard chow for 1 or 4 weeks (FIG. 70; 2 wk, 6 wk, and 10 wk bars correspond to CDAHFD; 1 wk and 4 wk bars correspond to standard chow; “MRI” indicates MRI with Gd-9)."}}, "note": "Values joined by “and” are separate entries in the source; they are usually repeats but may differ in a detail not shown here. Equal entries are not always repeated."}
{"smiles": "NN1CCN(C(=O)CCC(C(=O)[O-])N2CCN(CC(=O)[O-])CCN(CC(=O)[O-])CCN(C(CCC(=O)N3CCN(N)CC3)C(=O)[O-])CC2)CC1.[Gd+3]", "note": "(stereo not drawn) [Gd-9, cis-1,4-Gd-(CHyd)2]", "values": [{"measurement": "Gd accumulation in fibrotic septa (LA-ICP-MS)", "setting": "liver of BDL rats", "value": "~50", "unit": "ppm"}, {"measurement": "ΔCNR of liver (row head ACNR)", "setting": "liver of CDAHFD mice; 2 wk CDAHFD", "value": "1.3±0.4 and 1.3 ± 0.3"}, {"measurement": "ΔCNR of liver (row head ACNR)", "setting": "liver of CDAHFD mice; 6 wk CDAHFD", "value": "2.1 ± 0.4"}, {"measurement": "ΔCNR of liver (row head ACNR)", "setting": "liver of CDAHFD mice; 10 wk CDAHFD then 1 wk Withdrawal", "value": "0.9±0.3"}, {"measurement": "ΔCNR of liver (row head ACNR)", "setting": "liver of CDAHFD mice; 10 wk CDAHFD then 4 wk Withdrawal", "value": "0.3±0.2"}, {"measurement": "ΔCNR of liver (row head ACNR)", "setting": "liver of CDAHFD mice; 10 wk CDAHFD", "value": "2.5±0.5"}, {"measurement": "ΔCNR of liver (row head ACNR)", "setting": "liver of CDAHFD mice; Control (standard chow)", "value": "0.1±0.4"}]}
